Measured values published in US11919906B2, “Crystal form of ACP-196 and method of treatment thereof” (Hangzhou SoliPharma Co., Ltd., priority 2016, dated 2024).

Tests used:
[1] = Isothermal sorption (dynamic vapor sorption), hygroscopicity; format: physicochemical; conditions: between 30 to 80% RH
Experimental: Dynamic vapor sorption data and isothermal sorption data were collected on TA Instruments Q5000 TGA. Method: A sample of 1 to 10 mg was placed in a platinum pan; the weight change of the sample during the change in relative humidity from 0% to 80% to 0% was measured.

[2] = Thermogravimetric analysis (TGA), weight loss / residual solvents; format: physicochemical; conditions: before 150° C.
Experimental: Thermogravimetric analysis data were collected on TA instruments Q500 TGA. Method: A sample of 5 to 15 mg was placed in a platinum pan, using High Resolution™, the sample was heated from room temperature to 350° C. at a heating rate of 10° C./min under the protection of dry nitrogen purge at 40 mL/min.

weight change (isothermal sorption plot) [1]	weight loss (TGA) [2]	Structure (SMILES)
0.8%	–	CC#CC(=O)N1CCC[C@H]1c1nc(-c2ccc(C(=O)Nc3ccccn3)cc2)c2c(N)nccn12 [ACP-196 Form 1]
5.5%	11.1%	CC#CC(=O)N1CCC[C@H]1c1nc(-c2ccc(C(=O)Nc3ccccn3)cc2)c2c(N)nccn12 [amorphous ACP-196]
